Here are results for 1 compound from patent publication US5300284A, “Glycosaminoglycanase inhibitor andethane diol composition for maintenance of hair growth” (priority 1991, dated 1994).

A short description of this data set: Flow-through skin penetration of 14C-labelled glucarolactone. In kind it is in vitro ADME, pig. The note with it: 20 hours. From the text:
In order to simulate human skin penetration in vivo, full thickness pig skin was used in a flow-through skin penetration cell system. For this purpose, the technique described by Bronough R L, and Stuart R F in "Methods for in vitro percutaneous absorption studies IV: The flow-throughdiffusion cell", published in J. Pharm.
This system allows for the study of percutaneous absorption from topically applied substances in a controlled manner, i.e. at controlled temperature and with constant receptor fluid flow rate. The flow-through skin penetration cell has a surface area of skin of 0.38 cm^2 exposed to a formulation containing a test substance. At time zero, 25 μl of a formulation containing tracer amounts of ^14 C-labelled glucarolactone was applied to the skin and left for 20 hours. During this period of penetration, receptor fluid flowing underneath the dermal side of the skin was collected in fractions at 2 hour intervals. At time 20 hours, the skin was vigorously washed to remove all non-absorbed material, the remaining receptor fluid in the cell also being collected at this time.
Subsequently, the piece of skin was detached from the cell and keratatomed at a thickness of about 1.3 mm. This procedure will separate the lower section of the dermis from that containing the stratum corneum, viable epidermis, upper part of dermis and neck of hair follicle. To refine further the picture of distribution of radioactivity, the upper section was subsequently tape stripped 5 times using transparent adhesive tape to remove residual radioactive materials adhering to the outer surface of the skin. All these sections were digested and counted for radioactivity. Each penetration cell therefore yielded 4 results:
i) transdermal penetration, i.e. the amount retrieved in receptor fluid flowing on the dermal side of the skin;
ii) tape strips, i.e. amounts of radio active material adhering to the skin surface;
iii) upper section of skin, i.e. remainder of stratum corneum, neck of hair follicle, viable epidermis and upper part of dermis;
iv) lower section of skin, i.e. remainder of dermis containing the remaining part of hair follicles and dermal papillae.
The results obtained from categories ii), iii) and iv) above together constitute the amounts retrieved from within the skin, i.e. dermal penetration. The results may be expressed as percentage of dose applied, or as the actual amounts delivered.
The following formulation was used to determine penetration and delivery of glucarolactone in accordance with the Bronaugh flow-through skin penetration cell technique:
Scintillation counting was employed to determine the amount of the enzyme inhibitor, glucarolactone, which had penetrated the skin to a point where it would be available to inhibit glycosaminoglycanase in the immediate environment of the hair bulb.
The results obtained are shown in the following Table 1 in which the values given represent percentages of the glucarolactone dose applied topically which actually penetrates into and through the skin and is recovered at various levels. In addition, the actual amounts of penetrated glucarolactone is given. The results shown are the average and standard error of the mean of 33 determinations.

[1] abbreviates: dermal (tapes + upper + lower section), 8% w/w glucarolactone formulation, mean ± SEM of 33 determinations.
Where [2] appears, read: lower section of skin (hair follicles, dermal papillae), 8% w/w glucarolactone formulation, mean ± SEM of 33 determinations.
[3] abbreviates: tape strips (skin surface), 8% w/w glucarolactone formulation, mean ± SEM of 33 determinations.
The mark [4] stands for this setting: total (transdermal + dermal), 8% w/w glucarolactone formulation.
The mark [5] stands for this setting: transdermal (receptor fluid), 8% w/w glucarolactone, 10% ethane diol formulation, mean ± SEM of 33 determinations.
Setting [6] is: upper section of skin, 8% w/w glucarolactone formulation, mean ± SEM of 33 determinations.

On to `O=C(O)[C@@H](O)[C@H]1OC(=O)[C@H](O)[C@H]1O` [glucarolactone], for which, under setting [1], the “Actual Amount GL Delivered, Dermal” value was 72.87 ± 16.62 µg and the “Percentage of Applied Dose, Dermal” value is 3.719 ± 0.848%. Besides, under setting [2], the “Actual Amount GL Delivered, lower section” value is 56.63 ± 14.33 µg and the “Percentage of Applied Dose, lower section” value is listed as 2.890 ± 0.731%. For the same compound, under setting [3], the “Actual Amount GL Delivered, tapes” value was 2.38 ± 0.39 µg and the “Percentage of Applied Dose, tapes” value stood at 0.122 ± 0.020%. Under setting [4], the “Actual Amount GL Delivered, Total” value was 80.67 µg and the “Percentage of Applied Dose, Total” value is 4.117%. Moreover, under setting [5], the “Actual Amount GL Delivered, Transdermal” value amounted to 7.80 ± 2.47 µg and the “Percentage of Applied Dose, Transdermal” value was determined as 0.398 ± 0.126%. For the same compound, under setting [6], the “Actual Amount GL Delivered, upper section” value came out at 13.86 ± 3.00 µg and the “Percentage of Applied Dose, upper section” value worked out at 0.707 ± 0.153%.
